Results taken from US20100048545A1, “Compounds and Compositions for Use in the Prevention and Treatment of Disorders of Fat Metabolism and Obesity” (INNODIA INC., priority 2006, published 2010).
Read-outs that look alike come from different tables or passages of the source.

Experiments:
[1] = system: DIO-mice; assay type: in vivo
From the text: The objective of this study was to evaluate the effect of chronic administration of 4-hydroxyisoleucine (4-OH, compound 14a) on food consumption and body weight gain of DIO-mice. Both parameters were monitored for 1 week prior to the commencement of treatment, then for the 77 days of treatment and for an additional 12 days post-treatment.
C57BL/6 mice were received at 7-8 weeks of age and fed a high fat diet (60% of calories from fat) for several weeks. A total of 32 animals were used in the study. The animals were distributed into 4 groups (3 treated, 1 control group, all on high fat diet). Each group was composed of 8 animals. The mice were randomized according to body weight and basal glycemia values following a 5±0.5 hour fasting period.
The test agent was dissolved in reverse osmosis water. 4-Hydroxyisoleucine was aliquoted and kept at 4° C. Control animals received reverse osmosis water twice daily (group 1). Mice from groups 2, 3 and 4 were treated twice daily with 4-hydroxyisoleucine (4-OH, compound 14a) at 100, 50, and 25 mg/kg, respectively. All groups were treated by oral gavage. Treatment commenced on Day 0 and ended on Day 77. Food consumption was measured daily and averaged on a weekly basis beginning one week before the start of treatment as shown in FIG. 16B. Similarly, food consumption was monitored during the treatment period and for 12 days after treatment was stopped as shown in FIGS. 16A and 16B.

[2] = system: dietary obese rat model; assay: Energy balance (VO2, respiratory quotient) in dietary obese rat model, prevention and reversal studies; assay type: in vivo, male Wistar rats
Experimental: The effect of 4-OH on energy balance was assessed in the dietary obese rat model. In these studies, male Wistar rats were administered a high fat/high sucrose diet (65.4% fat) and treated chronically with 4-OH. Each study consisted of 4 groups of animals. The groups studied were normal chow fed rats, rats fed a high fat/high sucrose diet and rats fed a high fat high sucrose diet and orally administered 4-OH at 100 mg/kg twice per day. These three groups had access to food ad libitum throughout the study. A fourth group fed the same number of Kcal (or similar energy intake) as the 4-OH group was also included to investigate drug effects that may occur in addition to changes in food intake. Two studies were performed: one to determine whether 4-OH could prevent the development of obesity (prevention study) and the other to determine whether 4-OH could reverse established obesity (reversal study). In the prevention study, male Wistar rats were administered the high fat/high sucrose diet for 5 weeks. During the first week of diet administration, the rats were adapted to receiving increasing doses of 4-OH. In the reversal of obesity study, the animals were first made obese by feeding the high fat/high sucrose diet for 28 days. This feeding regime continued for the duration of the study. After the period of obesity induction, the rats were also adapted to receiving increasing doses of 4-OH during a one week period. After the adaptation period, 4-OH was orally administered at a dose of 100 mg/kg twice per day for the following 4 week period in both treatment protocols. The ability of 4-OH to influence energy expenditure was determined by indirect calorimetry. On the 21st day of both the prevention and reversal studies, rats were placed into metabolic cages and energy expenditure was assessed by determining oxygen consumption. The effect of 4-OH on oxygen consumption during the day/night cycle on Day 21 of both the prevention and reversal of obesity studies is shown in FIGS. 27A and 27B. The respiratory quotient (RQ) was calculated in these studies from both the quantity of oxygen consumed and the quantity of carbon dioxide produced while the animals were present in the metabolic chambers. A RQ of 1 is indicative that the animals are burning pure carbohydrate as the energy source.

[3] = system: C57BL/6 mice fed a high fat diet; assay: Analogs and isomers of 4-hydroxyisoleucine on body weight gain in C57BL/6 mice fed a high fat diet, 3 days; assay type: in vivo
Experimental: C57BL/6 mice were received at 6-7 weeks of age and fed a standard commercial chow for 1 week (acclimation period). The animals were randomized based on their body weight values, into control and treatment groups (n=6). Then, animals were shifted to a high fat diet (60% of calories from fat) and treated twice daily by oral gavage with 4-hydroxyisoleucine (4-OH, compound 14a) or different analogs and isomers of 4-OH at the dose of 100 mg per kg of body weight for 3 days. The control group (Control HFD) received vehicle (water) alone and a group was kept under standard chow (Control Lean). Body weight of the mice was recorded daily. Two different experiments were run and the effect on body weight gain of selected analogs and isomers according to the invention is presented in FIG. 30A (Experiment 1) and FIG. 30B (Experiment 2).

[4] = system: Wistar rat model of diet-induced obesity; assay: Food consumption, weight gain and plasma triglycerides in Wistar rat model of diet-induced obesity, 28 days; assay type: in vivo, Wistar rats; settings: for triglycerides plasma levels: 28 days
From the text: A total of 60 animals were used in the study. The animals were distributed into 6 groups; 1 group was fed standard chow, 1 group was fed a high fat, high sucrose (HFHS) diet with 28 days treatment, 1 untreated control group was fed a HFHS diet, and 1 untreated group was fed a HFHS diet, but with caloric intake restricted to match the caloric intake of the 4-OH treated animals (pair-fed animals). A fifth group was fed a high fat, high sucrose (HFHS) diet with 28 days treatment and received an acute oral administration of 4-OH just prior to experimentation on Day 29 of the study, and a sixth group was fed a HFHS diet, but with caloric intake restricted to match the caloric intake of the 4-OH treated animals receiving an acute oral administration of 4-OH on Day 29 of the study (pair-fed animals). Each group was composed of 10 animals. […] Body weights were measured once weekly from week 1 to week 4 of the study. For the four weeks of treatment, the test article 4-OH was dissolved in reverse osmosis water. 4-OH aliquoted and kept at 4° C. […] Untreated animals received water twice daily.

[5] = system: ATGL; assay: RT-PCR gene expression in adipocytes of treated rats: ATGL; assay type: in vivo
Experimental: As the ex vivo studies on adipocytes indicated the lipolytic effect of drug was due to chronic exposure (see previous example), a role in gene regulation was assessed. RT-PCR was used to assess the expression of genes in the adipocytes from treated and control animals.

SMILES: C[C@@H]([C@H](C)O)[C@H](N)C(=O)O [Compound 14a, (2S,3R,4S)-4-Hydroxyisoleucine]
- body weight gain ([1]; 100 mg/kg twice daily, Day 28 to Day 84): significantly effective at controlling body weight gain
- body weight gain ([1]; 100 mg/kg twice daily, Day 28 to Day 84, listed as 4-OH): sustained and highly significant
- food consumption ([1]; 100 mg/kg twice daily, first week of treatment): slight decrease in food consumption
- body weight gain and food consumption after treatment was stopped ([1]; 100 mg/kg, first week following cessation of treatment): increase in the first week following cessation of treatment
- tolerability of treatment ([1]; 25, 50 and 100 mg/kg twice daily, oral gavage, 77 days): well-tolerated
- body weight gain ([1]; 50 and 100 mg/kg twice daily, first three weeks of treatment): moderation of weight gain was observed
- respiratory quotient, night phase ([2]; 100 mg/kg twice per day): not reduced
- oxygen consumption per kg of body weight, night phase ([2]; 100 mg/kg twice per day, Day 21): significantly enhanced relative to both the pair fed and control groups of animals
- oxygen consumption (VO2), light phase ([2]; 100 mg/kg twice per day, Day 21, prevention and reversal studies): essentially identical
- respiratory quotient (fuel source), day phase ([2]; 100 mg/kg twice per day, vs pair fed animals): burn proportionally more fat than pair fed animals
- VO2 expressed per rat ([2]; 100 mg/kg twice per day, vs pair fed control groups): greater
- respiratory quotient (fuel source), day phase ([2]; reversal study, vs pair fed and vehicle treated animals): proportionally more fat than both the pair fed and vehicle treated animals
- body weight gain induced by the high fat diet ([3]; 100 mg/kg twice daily oral gavage): reduced body weight gain induced by the high fat diet
- body weight compared to pre-treatment values ([3]; 100 mg/kg twice daily, one experiment (FIG. 30B)): reduced body weight of the mice as compared to pre-treatment values
- triglycerides plasma levels ([4]; 100 mg/kg twice daily, p<0.05): lower triglycerides plasma levels
- triglycerides plasma levels ([4]; 100 mg/kg twice daily, p<0.05, listed as 4-OH): significantly decreased compared to the respective pair fed groups
- food consumption ([4]; 100 mg/kg twice daily, first week, vs HFHS control): slightly decreased
- weight gain after 28 days of treatment ([4]; 100 mg/kg twice daily, p<0.05): significantly decreased compared to the pair fed group and the HFHS control group
- weight gain after 28 days of treatment ([4]; chronic 4-OH plus an acute oral administration on Day 29, p<0.05): significantly decreased compared to the respective pair-fed group and the HFHS control group
- expression of ATGL, increase [5]: more than two times
- Increase (x times) in expression of ATGL ([5]; HFHS diet, treated for 4 weeks (28 days)): 2.6 x times
